Results on 2 molecules are retold here after patent US7026344B2, “Treating sickle cell disease” (priority 2000, dated 2006).

“And” between values parts separate entries of the source, which are not always exact repeats. Equal entries are not always repeated.

Series [1] has as its system activated-PMN mediated SRBC retention/adherence in the isolated-perfused rat lung. Nature of the series: SRBC retention/adherence in isolated-perfused lung with PMA-activated PMNs. The conditions noted are these: for SRBC retention/adherence: mean±SE. Here is the method: Isolated perfused lung. Male Sprague-Dawley rats (275–350 g) were anesthetized with Nembutal sodium (25 mg ip), and lungs were removed for extracorporeal perfusion. A tracheostomy was performed that permitted ventilation with a Harvard rodent ventilator (model 683) at 55 breaths/min with a tidal volume of 2.5 ml and 2.0 cmH2O positive end-expiratory pressure. The inspired gas mixture as 95% air-5% CO2 (room air gas). A median stemotomy was performed, heparin sodium (100 IU) was injected in the right ventricle, and caminulas were placed in the pulmonary artery and left ventricle. Heart, lungs, and mediastinal structures were removed en bloc and placed into a humidified chamber. Lungs were perfused by a Gilson Minipuls 2 peristaltic pump at a constant flow of 0.03 ml·g body wt^−1·min^−1. Lungs were perfused with a physiological salt solution (PSS) containing bovine serum albumin (BSA, 66,000 mol.wt). The PSS-BSA perfusate contained (in mM) 119 NaCl, 4.7 KCI, 1.17 MgSO4, 22.5 NaHCO3, 1.18 KH2PO4, 3.2 CaCl2, 5.5 glucose, and 4 g/100 ml BSA. PSS-BSA (100 ml) was perfused through the lungs in a nonrecirculating fashion to remove residual blood cells and plasma. The perfusate was then changed to a PSS-BSA perfusate that contained RBCs from individuals homozygous for sickle cell anemia (Hb SS). The perfusate hematocrit was ˜10%. Pulmonary arterial pressure (Ppa) and pulmonary venous (Ppv) were continuously monitored with Cope pressure transducers (model 041-500-503) and recorded on a Grass polygraph recorder (model 7E). Zone 3 flow conditions (arterial>venous>alveolar pressures) were maintained throughout all experiments.
Blood collection. During steady-state, blood samples (˜40 ml) were obtained from normal (Hemoglobin A) human volunteers and from individuals with homozygous sickle cell anemia in the sickle cell clinics at the University of South Alabama. Samples were collected in syringes containing heparin and utilized within 48 hours of collection. Individuals having received blood transfusions within 6 wks were excluded from this study. Sickle cell anemia was documented by hemoglobin electrophoresis in each subject.
RBC isolation and Cr^51 labeling. Each whole blood sample was centrifuged at 4100 rpm for 10 min followed by the removal of the plasma and buffy coat. Packed RBCs were then mixed at a 1:3 dilution with normal saline and washed ×3. With each wash, the RBC suspension was centrifuged for 10 min at 3000 rpm followed by removal of the supernatant. Following the third wash, packed RBCs were resuspended in PBS (1 ml PBS/1 ml packed RBCs) and incubated with 100 μCi Cr^51 for 60 min in a shaker water bath at 37° C. Following incubation, the Cr^51 labeled RBCs were washed ×1 with normal saline and resuspended in PSS-BSA to obtain a hematocrit of ˜10%.
Neutrophil (PMN) isolations. Heparinized whole blood (20 ml) from individuals with homozygous sickle cell anemia was diluted 1:1 with normal saline. Dextran 500 was added to the 1:1 mix at ¼ the volume of the 1:1 mix. This was allowed to incubate for 45 min at 37° C. The supernatant (contains PMNs) was aspirated into a 50 ml centrifuge tube and underlayered with 10 ml histopague 1077. This was centrifuged at 1250 rpm for 30 min. The supernatant is aspirated and discarded leaving the PMN pellet. Sterile H2O, 3 ml, is added to the PMN pellet and agitated for 3 sec to lyse any residual RBCs. Phosphate buffered saline, 45 ml, is added immediately thereafter to stop the reaction. This is centrifuged at 1250 rpm for 10 min. The supernatant is aspirated and discarded. This process of RBC lysis followed by PBS is repeated until the PMN pellet is without visual evidence of RBC contamination. The PMN pellet is suspended in 1 ml of sterile Hank's balanced salt solution. A total PMN count is obtained using the Cell-DYN 900 Coulter Counter. PMN viability is 95–99% as assessed using trypan blue.
RBC Retention. […]

Series [2] concerns fetal hemoglobin production in primary erythroid progenitors from Hb SS patients. The experiment in a line: Hemoglobin F determination in erythroid progenitors, Hb SS patients. It is filed as cell-based, human. The note with it: for fold increase in hemoglobin F: 0 versus 100 μM, Hb SS patients; for HbF Difference: 0 vs 100 μM, sickle cell patients. How it is done:
BFU-E Colony Growth. Mononuclear cells were isolated from the peripheral blood of each patient studied by density gradient centrifugation using Histapaque-1077 (Sigma). Erythroid progenitors were obtained in methylcellulose culture. ZL was added on day 0 at 25, 50, 75, or 100 μM concentrations for 13–14 days at which time the number of BFU-E colonies were counted on an inverted microscope and harvested for hemoglobin determinations.
Hemoglobin F determination. The erythroid progenitors were collected, washed in PBS then lysed at room temperature in 200 μl of water. The supernatant was split into two tubes, one for total hemoglobin determination and one for hemoglobin F determination. In brief, IgG (10 μl), 1.2 N NaOH (7 μl) and saturated (NH4)2SO4 (70 μl) were added to the hemoglobin F sample. The denatured hemoglobin was pelleted and the supernatant containing hemoglobin F was mixed with 500 μl of tetramethyl benzidine and 500 μl of H2O2 at room temperature then quantitated on a spectrophotometer at 600 nm. The percentage of fetal hemoglobin to total hemoglobin was determined.
The capability of ZL to induce hemoglobin F in primary erythroid progenitors, grown from peripheral blood mononuclear cells (MNC) was analyzed. BFU-E colonies were grown in methylcellulose cultures supplemented with erthyopoietin and interleukin-3 and ZL at concentration from 0 to 100 μM. Three patients homozygous for hemoglobin S (Hb SS) were analyzed with triplicate experiments. The average BFU-E colony number was 123.2±18.6 without ZL compared to 10.6±2.0 at 100 μM concentrations, p<0.05 (Table 1). […] All pair-wise comparisons for BFU-E and hemoglobin F between 0μ and other concentrations (25, 50, 75 and 100 μM) were significant at p<0.05. The correlation coefficient between the number of BFU-E colonies or percent hemoglobin F and different levels of ZL is −0.90 and +0.79, respectively (p<0.05). […] (See Yang et al., BFU-E colony growth in response to hydroxyurea: correlation between in vitro and in vivo fetal hemoglobin induction. Am J Hematol. 1997; 56:252–258). […] HU either was more efficient in inhibiting BFU-E colony growth or alternatively the baseline number of colonies on an average was higher for the Hb SS patients in the HU cohort.

Another series has as its system K562 cells. The experiment in a line: K562 cell viability by trypan blue exclusion. It is filed as cell-based, human. The note with it: 75 μM and 100 μM. How it is done:
Cell Culture. K562 cells were grown in suspension cultures in RPMI-1640 containing 10% fetal bovine serum, penicillin (100 U/ml) and streptomycin (0.1 mg/ml in a humidified incubator at 37° C. in a 5%CO2/95% air atmosphere. […] The K562 cells were induced for 72 hours then RNA isolated for further analysis. Cell viability was completed by 2% trypan blue exclusion at timnes 0 and 72 hours.

On to `NC(=O)NO` [HU, Hydroxyurea], for which the values for the SRBC retention/adherence in series [1] (HU 50 μM pretreated A-PMN), in series [1] (HU 100 μM pretreated A-PMN) and in series [1] (HU 1000 μM pretreated A-PMN) were 4.2±0.4 ×10^8 SRBC/gram of lung, 4.3±0.4 ×10^8 SRBC/gram of lung and 3.9±0.2 ×10^8 SRBC/gram of lung, respectively. In series [1] (HU 1000 μM pretreated PMNs vs control (H2O diluent)), the “decrease in retained SRBCs” value was approximately 25%. Further, in series [1] (HU 50 and 100 μM), the “attenuation of activated-PMN mediated enhanced SRBC retention/adherence” value was “did not attenuate”. Besides, the “fold increase in hemoglobin F” value in series [2] stood at 3.8 fold. The “HbF Difference” value in series [2] is 14.4 ± 1.5%. The “decrease in K562 cell viability” value with K562 cells was determined as 10%.

On to `CC(c1cc2ccccc2s1)N(O)C(N)=O` (racemic) [ZL, (±)-1-(1-Benzo[b]thien-2-ylethyl)-1-hydroxyurea], for which, in series [1] (ZL 2.5 μM pretreated A-PMN vs SRBC+A-PMN control (ethanol diluent), 30 min perfusion), the “decrease in SRBC retention/adherence” value is on record as approximately 42%. Moreover, the “fold increase in hemoglobin F” value in series [2] came to 4.8 fold. In series [2], the “HbF Difference” value was determined as 12.6 ± 1.1%. Moreover, the HbF in series [2] (zileuton 25 μM, individual Hb SS patients (No. 1-3)) was 3% and 4% and 11%; in series [2] (zileuton 25 μM, mean ± SEM of three Hb SS patients) it was 6.2 ± 1.4%; in series [2] (zileuton 50 μM, individual Hb SS patients (No. 1-3)), 6% and 7% and 14%; in series [2] (zileuton 50 μM, mean ± SEM of three Hb SS patients) it was 11.9 ± 1.3%; in series [2] (zileuton 75 μM, individual Hb SS patients (No. 1-3)) it was 11% (2×) and 18%; in series [2] (zileuton 75 μM, mean ± SEM of three Hb SS patients), 13.2 ± 1.4%. The HbF in series [2] (zileuton 100 μM, individual Hb SS patients (No. 1-3)) is 13% and 14% and 21%; in series [2] (zileuton 100 μM, mean of three Hb SS patients), 15.9±1.4% and 15.9%; in series [2] (zileuton 100 μM, mean of three Hb SS patients, listed as zileuton) it was 15.9 ± 1.4%. The “decrease in K562 cell viability” value in the series with K562 cells came to 10%.
